Measurements taken from patent US10934346B2, “Modified T cell comprising a polynucleotide encoding an inducible stimulating molecule comprising MyD88, CD40 and FKBP12” (priority 2014, dated 2021).
Entries after “also recorded” stand apart in the source; their conditions may differ.

Experiments:
iMC-modified T cells = assay: Titration of rimiducid on iMC-transduced T cells (T cell activation); type: cell-based, human
Description: Cytokine and chemokine production. […] CAR and iMC signaling.

primary T cells = assay: Activation of primary T cells with iMyD88, iCD40 or iMC after AP1903 (cytokine ELISA); details: iMC
Method: To examine whether MyD88, CD40 or both molecules should be included as endodomains in potential chimeric antigen receptor constructs, four distinct vectors were designed containing the AP1903-binding domains only (Fv′Fv), or genetically fused with MyD88 (iMyD88), CD40 (iCD40) or with both MyD88 and CD40 (iMC) (FIG. 41a). […] The ability of iMyD88, iCD40 or iMC to activate T cells following exposure to AP1903 by measuring IFN-γ and IL-6 production by ELISA was then assayed.
A set of experiments was performed to examine whether MyD88, CD40 or both components were required for optimum T cell stimulation using the iMC molecule.

Capan-1-GFP tumor cells = assay: Coculture of CAR/iMC T cells with Capan-1-GFP tumor cells; details: 10 nM rimiducid, PSCA.ζ CAR and iMC T cells, 7 days
Method: FIG. 2C) Non-transduced and PSCA.ζ CAR T cells modified with either FKBP or iMC were cocultured with Capan-1-GFP tumor cells at a 1:1 T cell to tumor cell ratio with and without 10 nM rimiducid. Tumor cell and T cell frequency were assessed after 7 days by flow cytometry. Tumor cell frequency was assessed by flow cytometry by measuring CD3^−GFP^+ tumor cells by SSC/GFP gating. Enrichment of T cells coexpressing iMC and CAR were assessed in coculture assays by flow cytometry by measuring CD19-PE and anti-CAR-APC frequency, respectively. FIG. 2D) T cells were subsequently assessed for CD25 expression and measured for T cell proliferation (FIG. 2E) using flow cytometry and cell enumeration.
FIG. 12B) Non-transduced T cells and T cells transduced with FKBP^+PSCA.ζ, FKBP^+PSCA.28.ζ) or iMC^+PSCA.ζ were cocultured with Capan-1-GFP tumor cells at a 1:1 effector:target ratio for 7 days and analyzed for residual tumor cells (CD3^−GFP^+) by flow cytometry.
Coculture experiment. […] After 7 days, all residual cells were collected by trypsinization, counted and stained with CD3, CD19 and Fc-specific antibodies and analyzed by flow cytometry. […]

iMC-expressing T cells = assay: Survival and growth of iMC-transduced T cells with weekly rimiducid, with or without IL-2; type: cell-based, human
Method: FIGS. 8A-8C provide assay results of iMC signaling in primary T cells induces cell survival in the absence of IL-2. FIG. 8A and FIG. 8B) FKBP and iMC transduced T cells were cultured in media supplemented with or without 100 U/ml IL-2 and stimulated on a weekly basis with 10 nM rimiducid (CID) and measured for growth by cell counting. FIG. 8C) iMC-modified T cells cultured in media without IL-2, with and without CID stimulation, were measured for viability by flow cytometry (SSC, FSC) after 42 days in culture. * indicates p-value <0.05.
The phosphorylation of key downstream signaling molecules, including JNK, Akt, RelA, ERK and p38 MAPK was measured in the induced iMC T cells.

IC-21 macrophages = assay: IL-6 ELISA of adenovirus-transduced IC-21 macrophages with AP1903; type: cell-based
Description: Inducible chimeric polypeptides of the present application were expressed in various cell types along with a tumor antigen. […] Cell lines included keratinocytes, melanocytes (for example, B16-F10 melanoma), macrophages (for example, IC-21), and fibroblasts (for example, BLK-CL4). FIG. 22 provides a schematic overview of the process by which expression of the chimeric polypeptide, after contacting AP1903, can induce the expression of inflammatory cytokines and chemokines in the transduced cell. FIG. 23 provides a schematic of an assay used to measure PSMA expression and cytokine secretion in transduced cells. The cells were transduced with one of four adenovirus Ad5 vectors: Ad5-iMC-RP-FL; Ad5-iMC-P2A-P-FL; Ad5f35iMC-RP-FL; or Ad5f35iMC-P2A-FL. […] IC-21 macrophages were cultured at 100,000 cells/ml/well in 24-well plates. […] A. Cells were labeled with anti-human PSMA antibody, LNI-17, (Biolegend, San Diego, Calif.) and PSMA expression was analyzed by flow cytometry. […] B. IL-6 was evaluated from the culture supernatants by ELISA (e-Bioscience, San Diego, Calif.). […] A. Cells were labeled with anti-human PSMA antibody, LNI-17, (Biolegend, San Diego, Calif.) and PSMA expression was analyzed by flow cytometry. […] B. IL-6 was evaluated from the culture supernatants by ELISA (e-Bioscience, San Diego, Calif.). […] IL-6 was evaluated from the culture supernatants by ELISA (e-Bioscience, San Diego, Calif.).

CAPAN-1 GFP+ tumor cells = assay: Co-culture of iMC-enabled T cells with CAPAN-1-GFP tumor cells; type: cell-based, human; details: 10 nM AP1903, 5:1 T cells to tumor cells, 72 hours, RV-172 T cells
Method: FIG. 53 Activation of iMC-transduced T cells with AP1903 induces T cell killing of tumor cells. […] Co-cultures were cultured with or without 10 nM AP1903. After 72 hours, co-cultures were analyzed for GFP^+ tumor cells (X-axis) by flow cytometry.
FIG. 55: Activation of iMC-transduced T cells with AP1903 induces T cell killing of tumor cells. […] Co-cultures were cultured with or without 10 nM AP1903. After 72 hours, co-cultures were analyzed for GFP^+ tumor cells by flow cytometry (n=2).
FIG. 56: Activation of iMC-transduced T cells with AP1903 induces T cell killing of tumor cells. […] Co-cultures were cultured with or without 10 nM AP1903.
3. Non-transduced T cells or cells transduced with RV-171 (control vector) or RV-172 (iMC vector) were cultured at a 5:1 ratio of T cells to tumor cells in media supplemented with 50 U/ml IL-2, and either with or without 10 nM AP1903. Co-cultures were then incubated at 37° C. and 5% CO2 for 72 hours. Cultures were subsequently analyzed for the presence of GFP^+ tumor cells by fluorescent microscopy and by harvesting the cultures with 0.25% trypsin/EDTA and measuring the frequency of GFP^+CD3^− tumor cells in the culture by flow cytometry.

## CC[C@H](C(=O)N1CCCC[C@H]1C(=O)O[C@H](CCc1ccc(OC)c(OC)c1)c1cccc(OCC(=O)NCCNC(=O)COc2cccc([C@@H](CCc3ccc(OC)c(OC)c3)OC(=O)[C@@H]3CCCCN3C(=O)[C@@H](CC)c3cc(OC)c(OC)c(OC)c3)c2)c1)c1cc(OC)c(OC)c(OC)c1 (relative stereo) [rimiducid, 2-Piperidinecarboxylic acid, 1-[(2S)-1-oxo-2-(3,4,5-trimethoxyphenyl)butyl]-, 1,2-ethanediylbis [imino(2-oxo-2,1-ethanediyl)oxy-3,1-phenylene[(1R)-3-(3,4-Dimethoxyphenyl)propylidene]] ester, [2S-[1(R*),2R*[S*[S*[1(R*),2R*]]]]]-(9Cl)]
iMC-modified T cells; Homo sapiens, T-cell, FIG. 1b, read-out: EC50, activation of T cells through the iMC switch
  EC50: ~0.12 nM
iMC-modified T cells; […]
  activation of iMC-transduced T cells: dose-dependent activation
Primary T cells
  IL-1 secretion: IL-1a and β are secreted
Capan-1-GFP tumor cells
  Capan-1-GFP tumor cell elimination: further enhanced Capan-1-GFP elimination
iMC-expressing T cells; IL-2 withdrawn
  T cell proliferation: no proliferation was observed
iMC-expressing T cells; in the presence of exogenous IL-2
  T cell survival and expansion: increased T cell survival and cell expansion
IC-21 macrophages; 100 nM AP1903
  IL-6 production: response to AP1903 by producing IL-6
IC-21 macrophages; macrophages
  activation of IL-6, dependence on AP1903: occurred in the presence or absence of AP1903
CAPAN-1 GFP+ tumor cells
  GFP+ tumor cells remaining: elimination of GFP^+ tumor cells; also recorded: showed very few viable GFP^+ tumor cells
